The values below come from ChEMBL document CHEMBL1201862, “PubChem BioAssay data set” (2004).

Values joined by “and” are separate entries in the source; they are usually repeats but may differ in a detail not shown here. Equal entries are not always repeated.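 Five compound concentrations were applied to cells in 96-well plates for 48 hours; endpoints were derived by simple linear interpolation of the resulting dose-response curve. Abbreviation: GI50, concentration required for 50% inhibition of growth.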 Active and inactive are the calls of the source. No stated cut-off is given here; in the data, active = GI50 up to about 1.1 µM and inactive = higher. Some results are limits rather than exact numbers.

Test systems include A549; ACHN; CCRF-CEM; HCC 2998; K562; M14; MCF7; MDA-MB-231; NCI-H23; OVCAR-4; OVCAR-5; PC-3; SF-295; SNB-75; T47D; UACC-257; UO-31; NCI-H460; NCI-H522.
What all share (assay): NCI tumour cell line growth inhibition, 48 h

For the molecule `Cc1ccsc1/C=N/Nc1nc2ccccc2s1`, the GI50 is 16.3 µM (inactive) with A549; 14 µM (inactive) in the experiment on ACHN; 15.4 µM (inactive) in the experiment with CCRF-CEM; 63.2 µM (inactive) in the experiment with HCC 2998; 14.7 µM (inactive) with K562; 28.1 µM (inactive) with M14. Also, the GI50 was 11.5 µM (inactive) in the experiment on MCF7; 12.8 µM (inactive) in the experiment on MDA-MB-231; 31.8 µM (inactive) with NCI-H23; 19.7 µM (inactive) in the experiment on OVCAR-4; 40.9 µM (inactive) in the experiment on OVCAR-5; 14.3 µM (inactive) with PC-3. The GI50 was 10.6 µM (inactive) in the experiment on SF-295; 20.5 µM (inactive) with SNB-75; 48.8 µM (inactive) in the experiment on T47D; 20.4 µM (inactive) with UACC-257; 20.8 µM (inactive) in the experiment with UO-31.

For `Cc1cc(C)c(C)c(-n2[nH]c(=O)n(C)c2=O)c1C`, the GI50 in the experiment with A549, in the experiment with ACHN, with CCRF-CEM, in the experiment on K562, in the experiment with M14 and in the experiment with MCF7 was > 100 µM (inactive) in each case. For the same molecule, the GI50 in the experiment with MDA-MB-231, in the experiment with NCI-H23, with NCI-H460, in the experiment on OVCAR-5, in the experiment on PC-3 and in the experiment with SF-295 was > 100 µM (inactive) throughout. Also, the GI50 in the experiment with T47D, in the experiment on UACC-257 and with UO-31 was > 100 µM (inactive) in each case.

Regarding `O=C(O)CN1CCNCCNCC1`, the GI50 in the experiment on A549, in the experiment with ACHN, with CCRF-CEM, in the experiment with K562, in the experiment on M14 and in the experiment on MCF7 was > 100 µM (inactive) each time. Moreover, the GI50 with MDA-MB-231 was > 100 µM (inactive); in the experiment with NCI-H460, > 100 µM (inactive); in the experiment on OVCAR-4, > 100 µM (inactive); in the experiment with OVCAR-5, > 100 µM (inactive); in the experiment on PC-3, > 100 µM (inactive); in the experiment with SNB-75 it was 17.5 µM (inactive). Also, the GI50 with T47D, with UACC-257 and in the experiment with UO-31 was > 100 µM (inactive) each time.

For `CN(C)C(=S)N1C(=S)N(c2ccccc2)C(=N/c2ccccc2)/C1=N\c1ccccc1`, the GI50 in the experiment on A549, in the experiment with ACHN, in the experiment with CCRF-CEM, in the experiment with HCC 2998, with K562 and with MDA-MB-231 was > 100 µM (inactive) throughout. In addition, the GI50 in the experiment with NCI-H23 was > 100 µM (inactive); in the experiment with NCI-H460, > 100 µM (inactive); in the experiment on NCI-H522 it was 6.82 µM (inactive); in the experiment with OVCAR-4 it was > 100 µM (inactive); in the experiment on OVCAR-5 it was > 100 µM (inactive); in the experiment with PC-3 it was > 100 µM (inactive). For the same molecule, the GI50 in the experiment on SF-295, with SNB-75, in the experiment with T47D, with UACC-257 and with UO-31 was > 100 µM (inactive) in each case.

For the molecule `Cc1cccc2c(N)c3cccc(C(=O)NCC[N+](C)(C)Cc4ccc(S(C)(=O)=O)cc4)c3nc12`, the GI50 was 1.44 µM (inactive) in the experiment on A549; 31.4 µM (inactive) in the experiment on ACHN; 7.03 µM (inactive) in the experiment with CCRF-CEM; 46.7 µM (inactive) with HCC 2998; 10.1 µM (inactive) in the experiment on K562; > 100 µM (inactive) in the experiment with M14. Besides, the GI50 was 11.5 µM (inactive) in the experiment on MCF7; > 81.3 µM (inactive) in the experiment with MDA-MB-231; 21.8 µM (inactive) in the experiment on NCI-H23; 4.3 µM (inactive) in the experiment with NCI-H460; 41.4 µM (inactive) in the experiment on OVCAR-4; > 95.1 µM (inactive) in the experiment on OVCAR-5. Further, the GI50 in the experiment on PC-3 was 44.2 µM (inactive); in the experiment with SF-295 it was 89.1 µM (inactive); with SNB-75 it was 10.8 µM (inactive); in the experiment on T47D, 59.7 µM (inactive); with UACC-257, > 100 µM (inactive); in the experiment on UO-31, 75.9 µM (inactive).

Take `Fc1cccc(F)c1C1SCc2nc3cc4ccccc4cc3n21` (configuration not stated): the GI50 in the experiment on A549 was 33.3 µM (inactive); with CCRF-CEM it was 22.4 µM (inactive); in the experiment with HCC 2998 it was 23.9 µM (inactive); in the experiment with K562, 12.1 µM (inactive); in the experiment on M14 it was 29.7 µM (inactive); in the experiment on MCF7, 47.2 µM (inactive). Also, the GI50 in the experiment on MDA-MB-231 is 27.5 µM (inactive); with NCI-H23 it was 52.7 µM (inactive); in the experiment on OVCAR-4 it was 3.16 µM (inactive); in the experiment with OVCAR-5, 64 µM (inactive); with PC-3, 23 µM (inactive); in the experiment with SF-295, 29.7 µM (inactive). Also, the results for the GI50 in the experiment on SNB-75, in the experiment on T47D and in the experiment with UACC-257 were 20.7 µM (inactive), 23 µM (inactive) and 31.6 µM (inactive), respectively.

`CC(C)/C(Cl)=N\OC(=O)Nc1ccc(F)cc1F`: the GI50 in the experiment on A549 was 18.4 µM (inactive); in the experiment with ACHN it was 3.36 µM (inactive); in the experiment on CCRF-CEM, 0.836 µM (active); in the experiment on HCC 2998, 18.3 µM (inactive); in the experiment on K562 it was 1.26 µM (inactive); in the experiment with M14, 2.98 µM (inactive). Moreover, the GI50 was 3.43 µM (inactive) in the experiment on MCF7; 2.21 µM (inactive) with MDA-MB-231; 14.3 µM (inactive) with NCI-H23; 20.7 µM (inactive) in the experiment on NCI-H460; 3.76 µM (inactive) in the experiment on OVCAR-4; 17.4 µM (inactive) in the experiment on OVCAR-5. The GI50 is 17.2 µM (inactive) with PC-3; 15.1 µM (inactive) with SF-295; 17.3 µM (inactive) in the experiment with SNB-75; 14.4 µM (inactive) in the experiment on T47D; 14.1 µM (inactive) in the experiment with UACC-257; 7.52 µM (inactive) in the experiment with UO-31.

As to `O=C(Nc1cccc2ccccc12)c1cc2ccccc2oc1=O`, the GI50 with A549 is > 100 µM (inactive); with ACHN it was 24.3 µM (inactive); with CCRF-CEM, > 100 µM (inactive); with HCC 2998, > 100 µM (inactive); with K562, > 100 µM (inactive); in the experiment with M14, > 100 µM (inactive). The GI50 with MCF7 was > 100 µM (inactive); in the experiment on MDA-MB-231, 23.6 µM (inactive); with NCI-H23 it was 36.7 µM (inactive); in the experiment on NCI-H460, > 100 µM (inactive); with OVCAR-4, 78 µM (inactive); with OVCAR-5, 41.1 µM (inactive). For the same molecule, the GI50 with PC-3 is > 100 µM (inactive); in the experiment on SNB-75, 30.6 µM (inactive); in the experiment with T47D, > 100 µM (inactive); in the experiment on UACC-257, > 100 µM (inactive).

As to `N#Cc1c(-c2ccccc2)[nH]c(=O)n(C2OC(CO)C(O)C(O)C2O)c1=O` (configuration not stated), the GI50 in the experiment on A549, in the experiment with ACHN, with CCRF-CEM, in the experiment on HCC 2998, in the experiment on K562 and with M14 was > 100 µM (inactive) throughout. Moreover, the GI50 in the experiment with MCF7, in the experiment on MDA-MB-231, in the experiment on NCI-H23, in the experiment on NCI-H460, in the experiment on OVCAR-4 and in the experiment with OVCAR-5 was > 100 µM (inactive) each time. Also, the GI50 in the experiment with PC-3 was > 100 µM (inactive); in the experiment on SF-295, > 100 µM (inactive); in the experiment with SNB-75, > 100 µM (inactive) and 75.7 µM (inactive); in the experiment on T47D, > 100 µM (inactive); in the experiment with UACC-257, > 100 µM (inactive); in the experiment on UO-31, > 100 µM (inactive).

`CCCCCCCCCCCCCCCCOCC(COP(=O)([O-])OCC[n+]1ccc(N(C)C)cc1)OCC` (configuration not stated): the GI50 was 16.2 µM (inactive) in the experiment with A549; 16.8 µM (inactive) with ACHN; 10.5 µM (inactive) in the experiment on CCRF-CEM; 13.7 µM (inactive) with HCC 2998; 19.3 µM (inactive) in the experiment with K562; 12.4 µM (inactive) with M14. Moreover, the GI50 in the experiment on MCF7 was 19.2 µM (inactive); in the experiment on MDA-MB-231 it was 8.55 µM (inactive); with NCI-H23, 18.6 µM (inactive); in the experiment with NCI-H460, 12.1 µM (inactive); in the experiment with NCI-H522, 12.8 µM (inactive); with OVCAR-4 it was 15.8 µM (inactive). Besides, the GI50 in the experiment on SF-295 is 16.5 µM (inactive); in the experiment on SNB-75, 2.97 µM (inactive); in the experiment on T47D, 18 µM (inactive); with UO-31 it was 15.5 µM (inactive).

In the case of `Nc1ncnc2c1ncn2C1C=CC(CP(=O)(O)O)C1` (configuration not stated), the GI50 in the experiment on A549, with ACHN, in the experiment with HCC 2998, with M14, in the experiment with MCF7 and in the experiment on MDA-MB-231 was > 100 µM (inactive) throughout. The GI50 in the experiment on NCI-H23, with NCI-H460, with OVCAR-4, in the experiment on OVCAR-5, in the experiment on PC-3 and in the experiment on SF-295 was > 100 µM (inactive) each time. In addition, the GI50 in the experiment on SNB-75, with T47D, with UACC-257 and in the experiment with UO-31 was > 100 µM (inactive) in each case.

For the molecule `O=C(O)Cc1cc(O)c(CC(=O)O)cc1O`, the GI50 with A549, in the experiment with ACHN, in the experiment on HCC 2998, with K562, in the experiment with M14 and with MDA-MB-231 was > 100 µM (inactive) each time. For the same molecule, the GI50 in the experiment with NCI-H23, in the experiment on NCI-H460, with NCI-H522, with OVCAR-4, with OVCAR-5 and with PC-3 was > 100 µM (inactive) in each case. Also, the GI50 in the experiment on SF-295, in the experiment on T47D, in the experiment with UACC-257 and with UO-31 was > 100 µM (inactive) throughout.
